Reference: patent publication US20060058270A1, “Ruthenium anticancer complexes” (priority 2002, published 2006)
pIC50: −log10 of the molar value.

What was measured:
[1] = tested on: A2780 ovarian cancer cell line; assay: Cytotoxicity of Ru compounds on A2780 ovarian cancer cell line (cell count, Coulter counter); format: cell-based; conditions: A2780 cells; 24 hours drug exposure, further 3 days growth, cells counted
Procedure: 1. Protocol for Testing Ru Compounds The compounds are tested on 24-well trays. Cells growing in a flask are harvested just before they become confluent, counted using a haemocytometer and diluted down with media to a concentration of 1×10^4 cells per ml. The cells are then seeded in the 24-well trays at a density of 1×10^4 cells per well (i.e. 1 ml of the diluted cell suspension is added to each well). The cells are then left to plate down and grow for 72 hours before adding the compounds of the invention. The Ru complexes are weighed out and made up to a concentration of 1 mg/ml with deionised water and 0.5% w/w DMSO. The appropriate volume of the Ru solution is added to 5 ml of media to make it up to a concentration of 100 μM for each drug. This 100 μM solution is then serially diluted to make up the 10 μM, 1 μM and 0.1 μM solutions. The media is removed from the cells and replaced with 1 ml of the media dosed with drug. Each concentration is done in duplicate. A set of control wells are left on each plate, containing media and 0.5% w/w DMSO without drug. The cells are left exposed to the drugs for 24 hours and then washed with phosphate buffered saline before fresh media is added. They are allowed to grow on for a further 3 days before being counted using a Coulter counter. Preparing Cells for Counting: Media is removed and 1 ml of PBS is added to the cells. 250 μl of trypsin is added and cells left in incubator for a few minutes to allow the monolayers to detach. Once trypsinised, 250 μl of media is added to each well to neutralise the trypsin. 200 μl of this suspension is added to 10 ml of NaCl for counting. Using the above protocol, a number of compounds of the invention were tested on A2780 ovarian cancer cell line. […]

[2] = tested on: guanosine and adenosine; assay: 1H NMR study of binding to DNA bases (guanosine/adenosine adduct formation); conditions: 500 MHz 1H NMR; guanosine:adenosine:compound mole ratio 1.3:1:1 in 10% D2O/90% H2O
Text: The ability of the compounds of the invention to bind to DNA bases was studied by nmr and the results are illustrated in the accompanying figures in which:
FIG. 1 is a 500 MHz ^1H NMR spectrum of a mixture of guanosine:adenosine:compound of Example 1 in the mole ratio 1.3:1:1, respectively, in 10% D2O/90% H2O.
In FIG. 2, the region from 5.1 to 5.4 ppm (right) corresponds to the central CH on the acac ligand. Peaks a and b correspond to the adenosine adducts, peak c to the guanosine adduct. In the region 7.9-8.6 ppm (left), peaks for the H2 and H8 protons of adenosine and H8 protons of guanosine appear. […] The atom labelling scheme for the nucleobase part (A and G) of the nucleosides is shown.

Row | SMILES | pIC50 [1] | adduct formation with adenosine and guanosine (binding to DNA bases) [2]
1 | CC(C)(C)C(=O)[CH-]C(=O)C(C)(C)C.Cc1ccc(C(C)C)cc1.[Cl-].[Ru+2] [Example 4, [(η^6-p-cymene)RuCl((CH3)3CCOCHCOC(CH3)3—O,O)]] | 4.85 | –
2 | CC#N.CC(=O)C=C(C)[O][Ru+].Cc1ccc(C(C)C)cc1.F[B-](F)(F)F [Example 6, [(η^6-p-cymene)Ru(CH3CN)(H3CCOCHCOCH3—O,O)]BF4] | 4.66 | –
3 | CC(=O)C=C(C)[O][Ru][Cl].Cc1ccc(C(C)C)cc1 [Example 1, [(η^6-p-cymene)RuCl(H3CCOCHCOCH3-O,O)]] | 4.72 | both adenosine and guanosine form adducts
4 | Cc1ccc(C(C)C)cc1.O=C([CH-]C(=O)c1ccccc1)c1ccccc1.[Cl-].[Ru+2] [Example 3, [(η^6-p-cymene)RuCl(C6H5COCHCOC6H5—O,O)]] | 4.96 | –
5 | CC(=O)C=C(C)[O][Ru][Cl].c1ccc(-c2ccccc2)cc1 [Example 5, [(η^6—C6H5C6H5RuCl(H3CCOCHCOCH3—O,O)]] | 4.68 | –
6 | Cc1ccc(C(C)C)cc1.O=C([CH-]C(=O)C(F)(F)F)C(F)(F)F.[Cl-].[Ru+2] [Example 2, [(η^6-p-cymene)RuCl(F3CCOCHCOCF3—O,O)]] | < 4.00 | –
